Laboratory results reported in patent US20130129832A1, “COGNITIVE IMPAIRMENT AMELIORANT” (TOHOKU UNIVERSITY, priority 2008, published 2013).

Experiments:
[1] = tested on: CRE-dependent transcription in cultured rat hippocampal neuronal cells; assay: CRE-dependent transcription reporter gene (luciferase) assay in cultured rat hippocampal neuronal cells; type: cell-based; conditions: 8 hours treatment with different concentrations, FIGS. 5 and 6
Experimental: (§1) FIG. 5 indicates concentration-dependent effects of nobiletin on CRE-dependent transcription in cultured rat hippocampal neuronal cells. Cells were inoculated at a density of 8×10^4 cells/48 well plate followed by holding the plate for 10 to 14 days. […] Following transfection, the cells were treated for 8 hours with different concentrations of […]. Data is shown as the mean±S.E.M. (n=6). Asterisks (*) indicate a level of significance of p<0.05 relative to a control, while double asterisks (**) indicate a level of significance of p<0.001 relative to a control.
as §1, with “FIG. 6 indicates concentration-dependent” for “FIG. 5 indicates concentration-dependent”, “effects of 4-demethylated nobiletin on” for “effects of nobiletin on”
A pregnant SD rat (E18) was sacrificed by cervical dislocation under ether anesthesia. […]
Results obtained from the reporter gene assay were evaluated using one-way ANOVA (Tukey). […]

[2] = tested on: ERK phosphorylation in PC12D cells; assay: ERK phosphorylation in PC12D cells by western blotting (p-ERK relative to total ERK); type: cell-based; conditions: 15 minutes treatment, 30 μM nobiletin alone, FIG. 2
Experimental: Therefore, the effects of royal jelly and the effects of the combined used of royal jelly and nobiletin on ERK activity in PC12D cells, which are considered to be model cells of nerve cells, were examined by western blotting using as an indicator thereof the effects of water-soluble components of “Royal Jelly FD Powder” on ERK phosphorylation.
PC12D cells (Aichi Prefectural County Research Institute) were sub-cultured using Dulbecco's Modified Eagle Medium (DMEM) comprising heat inactivated (56° C., 30 minutes) 5% horse serum (HS: Gibco), 10% fetal calf serum (FCS: CELLect), penicillin (50 units/mL) and streptomycin ([…]). […]
PC12D cells were inoculated into a 35 mm dish at 1×10^6 cells/dish, and after culturing for 24 hours in a CO2 incubator, the cells were treated with drug. […] Moreover, after subjecting to ultrasonic treatment for 5 minutes in ice water, the lysate was centrifuged for 20 minutes at 14,000 rpm followed by recovery of the supernatant and quantification of the amount of protein. […] Bands were detected using the ECL method. […]
PC12D cells were inoculated into a 3.5 cm dish at 1×10^6 cells/dish and cultured overnight followed by treating for 15 minutes with low-serum medium comprising various drugs, and lysing the cells with cell lysis solution to obtain a cell extract. The expression levels of p-ERK and total ERK in the cell extract were then analyzed. […]

Compound	effect on CRE-dependent transcription [1]	effect on ERK phosphorylation [2]
COc1ccc(-c2cc(=O)c3c(OC)c(OC)c(OC)c(OC)c3o2)cc1OC [nobiletin, 5,6,7,8,3′,4′-hexamethoxyflavone]	concentration-dependently promote CRE-dependent transcription	only demonstrated weak promoting action of ERK phosphorylation when used alone
COc1cc(-c2cc(=O)c3c(OC)c(OC)c(OC)c(OC)c3o2)ccc1O [4-demethylated nobiletin, 2-(4-hydroxy-3-methoxyphenyl)-5,6,7,8-tetramethoxychromen-4-one]	concentration-dependently promote CRE-dependent transcription in the same manner as nobiletin	
